Where a SMILES comes first, the peptide text is derived from it. The star is where a group is joined. Cbz = O=C(OCc1ccccc1)*
Legend:
[1] = tested on: frataxin; assay: Frataxin precursor accumulation in HeLa cells transiently transfected with frataxin 1-210 (immunoblot); type: cell-based, human; details: 10 μM proteasome inhibitor, 18 h
Protocol: Human embryonic kidney HEK-293 cells and Hela cells were maintained in DMEM supplemented with 10% FBS. HEK-293 were transfected with the calcium/phosphate precipitation method, using 20 μg total DNA (10 μg pIRES-frataxin and 10 μg HA-Ub, or corresponding empty vectors) on 10 cm dishes. Hela cells were transfected using Lipofectamine 2000 reagents (Invitrogen), according to manufacturer's instructions. […] Flp-In-HEK-293 cells (Invitrogen) are HEK-293 variants allowing the stable and isogenic integration and expression of a transfected gene. Flp-In-HEK-293 cells were maintained in DMEM supplemented with 10% FBS and transfected with the calcium/phosphate precipitation method. Briefly, cells were plated on 10 cm dishes and transfected with 10 μg total DNA. The HEK-293 clone stably expressing frataxin^1-210 was previously described (4). […]
(§1) Cell extracts were prepared in modified RIPA buffer (10 mM sodium phosphate pH7.2, 150 mM NaCl, 1% Na deoxycholate, 0.1% SDS, 1% Np40, 2 mM EDTA) or IP buffer (50 mM Tris-HCl, pH 7.5, 150 mM NaCl, 1% Nonidet P-40, 5 mM EDTA, 5 mM EGTA) supplemented with Complete protease inhibitor cocktail and 2 mM N-Ethylmaleimide (NEM). For immunoblotting, 100 μg of protein extract were separated on 12% SDS-PAGE, blotted onto nitrocellulose membrane and detected with specific antibodies. […] Immunocomplexes were then resolved and analysed by SDS-PAGE. […]

[2] = molecular target: T1, frataxin (Homo sapiens, UniProt Q16595); assay: Frataxin ubiquitination in HEK-293 cells co-transfected with HA-Ub and frataxin 1-210 (IP/WB); type: cell-based; parameters: HEK-293 cells transiently transfected with frataxin^1-210 and HA-tagged ubiquitin (HA-Ub); expressed in transfected cells; host or cells: HEK-293
T1 sequence (Q16595 42-210): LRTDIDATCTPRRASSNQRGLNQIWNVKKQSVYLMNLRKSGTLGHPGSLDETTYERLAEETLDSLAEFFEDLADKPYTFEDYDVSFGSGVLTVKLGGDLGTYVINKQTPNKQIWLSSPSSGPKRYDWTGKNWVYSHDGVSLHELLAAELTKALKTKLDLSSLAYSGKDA
Protocol: (§2) Human embryonic kidney HEK-293 cells and Hela cells were maintained in DMEM supplemented with 10% FBS. HEK-293 were transfected with the calcium/phosphate precipitation method, using 20 μg total DNA (10 μg pIRES-frataxin and 10 μg HA-Ub, or corresponding empty vectors) on 10 cm dishes. Hela cells were transfected using Lipofectamine 2000 reagents (Invitrogen), according to manufacturer's instructions. Where indicated, the day after transfection, cells were treated for 16 h with 10 μM proteasome inhibitors, MG132 or Lactacystin, or 50 ng/ml DUB inhibitor Ubiquitin-Aldehyde. Flp-In-HEK-293 cells (Invitrogen) are HEK-293 variants allowing the stable and isogenic integration and expression of a transfected gene. Flp-In-HEK-293 cells were maintained in DMEM supplemented with 10% FBS and transfected with the calcium/phosphate precipitation method. Briefly, cells were plated on 10 cm dishes and transfected with 10 μg total DNA. The HEK-293 clone stably expressing frataxin^1-210 was previously described (4). […]
as §1
FIG. 2A illustrates HEK-293 cells transiently transfected with frataxin^1-210 and HA-tagged ubiquitin (HA-Ub) (where indicated) were treated with 10 μM MG132 (MG) for 16 h. […] Total cell extracts (lanes 1-4) or anti-HA immunoprecipitates (lanes 5-8) were analyzed by WB with anti-frataxin antibody. […]
Formula III prevents frataxin ubiquitination. […] Total cell extracts (upper panel) or anti-HA immunoprecipitated proteins (lower panel) were detected with anti-frataxin antibody.

[3] = tested on: frataxin precursor; assay: Cycloheximide chase of frataxin precursor degradation in HEK-293 Flp-In cells; type: cell-based, human; details: 100 μg/ml cycloheximide, 10 μM MG132
Protocol: (§3) Cell extracts were prepared in modified RIPA buffer (10 mM sodium phosphate pH7.2, 150 mM NaCl, 1% Na deoxycholate, 0.1% SDS, 1% Np40, 2 mM EDTA) or IP buffer (50 mM Tris-HCl, pH 7.5, 150 mM NaCl, 1% Nonidet P-40, 5 mM EDTA, 5 mM EGTA) supplemented with Complete protease inhibitor cocktail and 2 mM N-Ethylmaleimide (NEM). For immunoblotting, 100 μg of protein extract were separated on 12% SDS-PAGE, blotted onto nitrocellulose membrane and detected with specific antibodies. For in vivo detection of ubiquitin-conjugates […] and 50 ng/ml Ubiquitin-Aldehyde were added to the lysis buffer. For immunoprecipitation, 5 mg of total protein extract prepared as above were incubated for 1-2 h at 4° C. with specific antibodies, previously conjugated to Protein G-sepharose (GE Healthcare). Immunocomplexes were then resolved and analysed by SDS-PAGE. […] Densitometric analysis was performed using ImageJ software.
HEK-293 Flp-In cells stably transfected with frataxin^1-210 (FIG. 1E) or empty vector (FIG. 1G) were treated for the indicated times with 100 μg/ml cycloheximide (CHX) in the presence or absence of 10 μM MG132 (MG). […] One representative experiment out of five performed with similar results is shown. Pre: precursor, tub: tubulin.

[4] = molecular target: T1, frataxin; assay: Frataxin accumulation in HEK-293 Flp-In cells stably expressing frataxin 1-210 (WB, FACS); type: cell-based; parameters: HEK-293 Flp-In cells stably transfected with frataxin^1-210; expressed in transfected cells; details: HEK-293 Flp-In frataxin 1-210
Protocol: Human embryonic kidney HEK-293 cells and Hela cells were maintained in DMEM supplemented with 10% FBS. HEK-293 were transfected with the calcium/phosphate precipitation method, using 20 μg total DNA (10 μg pIRES-frataxin and 10 μg HA-Ub, or corresponding empty vectors) on 10 cm dishes. Hela cells were transfected using Lipofectamine 2000 reagents (Invitrogen), according to manufacturer's instructions. Where indicated, the day after transfection, cells were treated for 16 h with 10 μM proteasome inhibitors, MG132 or Lactacystin, or 50 ng/ml DUB inhibitor Ubiquitin-Aldehyde. Flp-In-HEK-293 cells (Invitrogen) are HEK-293 variants allowing the stable and isogenic integration and expression of a transfected gene. Flp-In-HEK-293 cells were maintained in DMEM supplemented with 10% FBS and transfected with the calcium/phosphate precipitation method. Briefly, cells were plated on 10 cm dishes and transfected with 10 μg total DNA. The HEK-293 clone stably expressing frataxin^1-210 was previously described (4). The HEK-293 clone stably expressing frataxin^K147R was obtained from cultures in selection medium containing 100 μg/ml hygromycin B (Invitrogen). FRDA lymphoblasts GM15850, GM16798 and […], as well control lymphoblasts GM15851, GM16241 and GM16215, were maintained in RPMI supplemented with 15% FBS. Treatments with specific ubiquitin-competing molecules were performed in 20% FBS containing medium. FRDA fibroblasts GM03816 were maintained in DMEM supplemented with 15% FBS.
as §3
Cells were collected after the indicated treatments and fixed for 20 minutes in 4% paraformaldehyde at room temperature. Cells were then permeabilized and blocked in a blocking solution (3% FBS in PBS) containing 0.2% Triton, for 1 hour at room temperature. Cells were then incubated overnight at 4° C. with anti-frataxin monoclonal antibody (MAB-10485, Immunological Science) or anti-Bcl2 monoclonal antibody (sc-509, Santa Cruz) diluted 1:200 in blocking solution. Cells were then washed 3 times in PBS and incubated for 1 hour at room temperature with FITC-conjugated goat anti-mouse IgG/IgM (BD Bioscience Pharmingen) diluted 1:200 in blocking solution. After washing 3 times with PBS cells were analyzed by flow cytometry (Becton Dickinson).
HEK-293 Flp-In cells stably transfected with frataxin^1-210 were treated for the indicated times with 10 μM MG132. Total cell extracts were blotted as in A. One representative experiment out of four performed with similar results is shown in FIG. 18.
Formula III induces frataxin precursor accumulation. HEK-293 Flp-In cells stably expressing frataxin^1-210 were treated for the indicated days with 20 μM of Formula III or 10 μM MG132. Total cell extracts were resolved on SDS-PAGE and analyzed with anti-frataxin antibody, or anti-tubulin, as a loading control.
Formula III induces mature frataxin accumulation. HEK-293 Flp-In cells stably expressing frataxin^1-210 were treated and analyzed as in B. One representative experiment out of three performed with similar results is shown FIG. 5C. […]

[5] = molecular target: T1, frataxin; assay: Frataxin accumulation in FRDA lymphoblasts (FACS, SDS-PAGE/western blot); type: cell-based; details: FRDA lymphoblasts GM15850; 50 μM; 6 days
Protocol: as §2, §1
Cells were collected after the indicated treatments and fixed for 20 minutes in 4% paraformaldehyde at room temperature. […] After washing 3 times with PBS cells were analyzed by flow cytometry (Becton Dickinson).
FRDA lymphoblasts GM15850 were cultured for 6 days in the presence of 50 μM Formula IV or Formula VI. Cells were then fixed, stained with anti-frataxin antibody or anti-Bcl2, as a control, and analyzed by flow cytometry. […]

[6] = tested on: FRDA cells; assay: Tolerability by FRDA cells; type: cell-based, human; details: among the different ubiquitin-competing molecules

CC(=O)N[C@@H](CSC(=O)[C@]1([C@@H](O)C(C)C)NC(=O)[C@H](C)[C@@H]1O)C(=O)O [lactacystin]
accumulation of frataxin precursor compared to untreated cells [1]: significantly higher amounts of precursor

CC(C)C[C@@H](C=O)NC(=O)[C@H](CC(C)C)NC(=O)[C@H](CC(C)C)NC(=O)OCc1ccccc1 [MG132] (Cbz-Leu-Leu-Leu-aldehyde)
accumulation of mono-ubiquitinated frataxin ([2]; HEK-293 co-transfected with frataxin 1-210 and HA-Ub, 10 μM MG132, 16 h): allows the accumulation and detection of mono-ubiquitinated frataxin
accumulation of poly-ubiquitinated frataxin ([2]; HEK-293 co-transfected with frataxin 1-210 and HA-Ub, 10 μM MG132, 16 h, frataxin IP, anti-Ub WB): allows the accumulation and detection also of poly-ubiquitinated frataxin
accumulation of frataxin precursor compared to untreated cells [1]: significantly higher amounts of precursor
degradation of the endogenous frataxin precursor ([3]; HEK-293 Flp-In empty vector): prevents the degradation
time-dependent degradation of the frataxin precursor ([3]; HEK-293 Flp-In frataxin 1-210): blocked
accumulation of mature frataxin ([4]; 10 μM MG132, after 24 hrs): ~2.5 fold
accumulation of the frataxin precursor ([4]; 10 μM MG132, after 24 hrs): > 15 fold

O=[N+]([O-])c1cc(/C=N/NS(=O)(=O)c2ccc(F)cc2)c(O)c([N+](=O)[O-])c1 [Formula III]
ubiquitination of frataxin 1-210 ([2]; HEK-293 co-transfected with HA-Ub and frataxin 1-210, 20 μM and 50 μM, revealed after 48 h): efficiently prevents the ubiquitination
accumulation of the frataxin precursor ([4]; 20 μM, days, WB): substantial accumulation
accumulation of mature frataxin ([4]; 20 μM, over a longer time period, WB): substantial accumulation

O=[N+]([O-])c1cccc(/C=N/NS(=O)(=O)c2ccc(F)cc2)c1O [Formula VI]
frataxin accumulation by FACS analysis [5]: discrete frataxin accumulation detectable in all cells
frataxin accumulation by WB and FACS analysis ([4]; 100 μM, 18 hours): effective in inducing frataxin accumulation
tolerability by FRDA cells [6]: best tolerated

Reference: patent US8703749B2, “Compositions and methods for treating Friedreich's Ataxia” (priority 2009, dated 2014)
